Data as given in patent publication US9670242B2, “Tetracyclic anthraquinone derivatives” (Tianjin Hemay Bio-Tech Co., Ltd, priority 2012, dated 2017).
One block for each molecule: values may come before it.

What was measured:
A375 cells = test: A375 cell growth inhibition test (MTT assay); format: cell-based, human; details: 72 h
Protocol: A375 Cell Growth Inhibition Test (MTT Assay)
(§1) II. Reagents and Consumable Materials
Culture medium: 90% DMEM+10% FBS (fetal calf serum); Pancreatin (0.25% (w/v) solution was formulated with PBS, 0.53 mM of EDTA was added in the formulation); PBS; 96-well culture plate.
(§2) 1. A plate (10 cm) of cells in logarithmic growth phase that were normally cultured was collected;
(§3) 2. The culture solution was sucked out. The plate was washed with 5 mL of PBS once or twice;
(§4) 3. PBS was sucked out. 1.5 mL of 0.25% pancreatin was added to the plate to infiltrate the cells for 1 min;
(§5) 4. The culture plate was placed in an incubator. Digestion was carried out for about 5 min at 37° C.;
(§6) 5. 3 mL of complete culture solution was added to the culture plate to stop the digestion. The cells were carefully scoured with micropipette (1 ml) to give a uniform cell suspension. The suspension was implanted into a 96-well cell culture disc by 3000 cells/100 μL per well. The culture plate was incubated overnight under 5% CO2 at 37° C. In day 2, 100 μL of culture solution comprising a compound was added in each well. The plate was further incubated for 72 h under 5% CO2 at 37° C.;
(§7) 6. The culture solution was sucked out;
(§8) 7. 100 μL of serum-free culture solution containing 0.5 mg/mL MTT was added in each well. The plate was incubated for 3 h;
(§9) 8. The culture solution was carefully sucked out;
(§10) 9. 100 μL of DMSO was added in each well and vibrated to dissolve;
(§11) 10. OD values were determined at 490 nM.
(§12) IV. Results and Treatments
(§13) 1. Calculation of Relative Inhibition Ratio The inhibition ratio of a compound on cell growth=(PC−n)/(PC−NC)×100%
(§14) PC: OD values of cells after normal growth in control wells without a compound;
(§15) n: OD values of cells after growth in test wells with a compound;
(§16) NC: Background OD values of blank wells without a compound and cells.

A431 cells = test: A431 cell growth inhibition test (MTT assay); format: cell-based, human; details: 72 h
Protocol: A431 Cell Growth Inhibition Test (MTT Assay)
as §1
Culture medium: 45% DMEM+45% F12+10% FBS (fetal calf serum); Pancreatin (0.25% (w/v) solution was formulated with PBS, 0.53 mM of EDTA was added in the formulation); PBS; 96-well culture plate.
as §2, §3, §4, §5
as §6, with “mL)” for “ml)”, “2500” for “3000”
as §7, §8, §9, §10, §11, §12, §13, §14, §15, §16

MCF-7 cells = test: MCF-7 cell growth inhibition test (SRB assay); format: cell-based, human; details: 73 h
Protocol: MCF-7 Cell Growth Inhibition Test (SRB Assay)
as §1
Culture medium: 90% EMEM+10% FBS; Pancreatin (0.25% (w/v) solution was formulated with PBS, 0.53 mM of EDTA was added in the formulation); PBS; 96-well culture plate.
as §2, §3
(§17) 3. 1.5 mL of 0.25% pancreatin was added to the plate to infiltrate the cells;
(§18) 4. The pancreatin was sucked out. The culture plate was placed in an incubator. Digestion was carried out for about 3 min at 37° C.;
as §6, with “5. 4” for “5. 3”, “(1 mL)” for “(1 ml)”, “uniform single” for “uniform”, “culture plate” for “culture disc”, “by 10000” for “by 3000”, “for 73” for “for 72”
(§19) 6. The culture solution was sucked out. 100 uL of TCA fixed cells which were diluted to 10% were added to each well. The plate was kept in a refrigerator for 1 h at 4° C.
(§20) 7. TCA stationary liquid was sucked out. Each well was washed with 150 μL of ddH2O five times;
(§21) 8. After the stationary liquid was cleansed, the plate was dried in the air at the room temperature;
(§22) 9. 60 μL of SRB staining solution was added in each well. The well was stained for 15 min at the room temperature;
(§23) 10. The SRB staining solution was sucked out. Each well was washed with 150 μL of 1% glacial acetic acid five times;
(§24) 11. After the SRB staining solution was cleansed, the plate was dried in the air at the room temperature;
(§25) 12. 100 μL of 10 mM Tris was added in each well. The plate was vibrated to dissolve out SRB;
(§26) 13. OD values were determined at 570 nM.
as §12
1. Calculation of Relative Inhibition Ratio The inhibition ratio of a compound on cell growth=(PC−n)/(PC−NC)×100% […]

NCI-446 cells = test: NCI-446 cell growth inhibition test (MTT assay); format: cell-based, human; details: 72 h
Protocol: NCI-446 Cell Growth Inhibition Test (MTT Assay)
II. Reagents and Consumable Materials Culture medium: 90% RPMI1640+10% FBS (fetal calf serum); Pancreatin (0.25% (w/v) solution was formulated with PBS, 0.53 mM of EDTA was added in the formulation); PBS; 96-well culture plate.
as §2
2. The culture solution was sucked out. The plate was washed with 5 ml of PBS once or twice;
as §4
(§27) 4. The culture plate was placed in an incubator. Digestion was carried out for about 3 min at 37° C.;
as §6, with “mL)” for “ml)”, “4000” for “3000”
as §7, §8, §9
9. […]
(§28) 10. OD values were determined at 490 nM. […]

NCI-H460 cells = test: NCI-H460 cell growth inhibition test (MTT assay); format: cell-based, human; details: NCI-460 cells (NCI-H460 in method), 72 h
Protocol: NCI-H460 Cell Growth Inhibition Test (MTT Assay)
as §1
(§29) Culture medium: 90% RPMI1640+10% FBS (fetal calf serum); Pancreatin (0.25% (w/v) solution was formulated with PBS, 0.53 mM of EDTA was added in the formulation); PBS; 96-well culture plate.
as §2, §3, §4, §27
as §6, with “mL)” for “ml)”, “2000” for “3000”
as §7, §8, §9
9. […]
as §28

B16 cells = test: B16 cell growth inhibition test (MTT assay); format: cell-based, mouse; details: 72 h
Protocol: B16 Cell Growth Inhibition Test (MTT Assay)
as §1, §29, §2, §3, §4
(§30) 4. The culture plate was placed in an incubator. Digestion was carried out for about 1 min at 37° C.;
as §6, with “mL)” for “ml)”, “2500” for “3000”
as §7
7. 100 μl of serum-free culture solution containing 0.5 mg/mL MTT was added in each well. The plate was incubated for 3 h;
as §9, §10, §11, §12, §13, §14, §15, §16

DU-145 cells = test: DU-145 cell growth inhibition test (MTT assay); format: cell-based; details: 72 h
Protocol: DU-145 Cell Growth Inhibition Test (MTT Assay)
as §1
Culture medium: 90% EMEM+10% FBS (fetal calf serum); Pancreatin (0.25% (w/v) solution was formulated with PBS, 0.53 mM of EDTA was added in the formulation); PBS; 96-well culture plate.
as §2, §3, §4, §30
as §6, with “mL)” for “ml)”, “4000” for “3000”
as §7, §8, §9, §10, §11, §12, §13, §14, §15, §16

Hep3B cells = test: Hep3B cell growth inhibition test (SRB assay); format: cell-based; details: 72 h
Protocol: Hep3B Cell Growth Inhibition Test (SRB Assay)
as §1
Culture medium: 90% RPMI-1640+10% FBS; Pancreatin (0.25% (w/v) solution was formulated with PBS, 0.53 mM of EDTA was added in the formulation); PBS; 96-well culture plate.
as §2, §3, §17, §18
as §6, with “5. 4” for “5. 3”, “(1 mL)” for “(1 ml)”, “uniform single” for “uniform”, “culture plate” for “culture disc”, “by 5000” for “by 3000”
as §19, §20, §21, §22, §23, §24, §25, §26, §12
1. Calculation of Relative Inhibition Ratio The inhibition ratio of the compound on cell growth=(PC−n)/(PC−NC)×100% […]

[1] = Solubility of the compound in water; format: physicochemical
[2] = Storage stability detected by HPLC; format: physicochemical; details: sealed and stored for 9 months under refrigeration conditions
SK-Br-3 cells = test: SK-Br-3 cell growth inhibition test (SRB assay); format: cell-based, human; details: 72 h
Protocol: SK-Br-3 Cell Growth Inhibition Test (SRB Assay)
as §1
Culture medium: 85% DMEM+15% FBS; pancreatin (0.25% (w/v) solution was formulated with PBS, 0.53 mM of EDTA was added in the formulation); PBS; 96-well culture plate.
as §2, §3, §17
4. The pancreatin was sucked out. The culture plate was placed in an incubator. Digestion was carried out for about 2 min at 37° C.;
as §6, with “5. 4” for “5. 3”, “(1 mL)” for “(1 ml)”, “uniform single” for “uniform”, “culture plate” for “culture disc”, “by 10000” for “by 3000”
as §19
7. TCA stationary liquid was sucked out. […]
13. OD values were determined at […]. […]

786-O cells = test: 786-O cell growth inhibition test (MTT assay); format: cell-based, human; details: 72 h
Protocol: 786-O Cell Growth Inhibition Test (MTT Assay)
as §1, §29, §2, §3, §4, §30
as §6, with “mL)” for “ml)”, “2000” for “3000”
as §7, §8, §9, §10, §11, §12, §13, §14, §15, §16

Structure (SMILES): COc1cccc2c1C(=O)c1c(O)c3c(c(O)c1C2=O)CC(O)(C(=O)COC(=O)CCC(=O)NCCN1CCOCC1)CC3O[C@H]1C[C@H](n2cccc2)[C@H](O)[C@H](C)O1 (stereo partly drawn) [Example 89, 10-((3′-(pyrrol-1-yl)-2′,3′,6′-trideoxy-alphal-l-lyxo-hexylpyranyl)oxy)-7,8,9,10-tetrahydro-6,8,11-trihydroxy-13-oxo-14-(4-((2-(morpholin-1-yl)ethyl)amino)-4-oxo-butyrato)-1-methoxy-5,12-naphthalenedione acetate]
- IC50 (A375 cells): 48 nM
- IC50 (A431 cells): 46 nM
- IC50 (MCF-7 cells): 333 nM
- IC50 (NCI-446 cells): 140 nM
- IC50 (NCI-H460 cells): 2.5 nM
- IC50 (B16 cells): 3 nM
- IC50 (DU-145 cells): 56 nM

- IC50 (DU-145 cells): 61 nM
- IC50 (Hep3B cells): 28 nM
Structure (SMILES): COc1cccc2c1C(=O)c1c(O)c3c(c(O)c1C2=O)CC(O)(C(=O)COC(=O)CCC(=O)NCCOCCOCCOCCOCCOCCOCCOCCOCCOCCOCCOCCO)CC3OC1CC(n2cccc2)C(O)C(C)O1 (stereo not drawn) [Example 92]

Structure (SMILES): COc1cccc2c1C(=O)c1c(O)c3c(c(O)c1C2=O)CC(O)(C(=O)COC(=O)CCC(=O)NCCN1CCOCC1)CC3O[C@H]1C[C@H](n2cccc2)[C@H](O)[C@H](C)O1.O=P(O)(O)O (stereo partly drawn) [Example 96, 10-((3′-(pyrrol-1-yl)-2′,3′,6′-trideoxy-alphal-l-lyxo-hexylpyranyl)oxy)-7,8,9,10-tetrahydro-6,8,11-trihydroxy-13-oxo-14-(4-((2-(morpholin-1-yl)ethyl)amino)-4-oxo-butyrato)-1-methoxy-5,12-naphthalenedione phosphate]
- solubility of the compound in water [1]: more than 26 mg/ml
- stability on storage (degraded product by HPLC) [2]: No obvious degraded product was observed

- IC50 (SK-Br-3 cells): 15 nM
Structure (SMILES): COCCOCCOCCOCCOCCOCCOCCOCCOCCNC(=O)CCC(=O)OCC(=O)C1(O)Cc2c(O)c3c(c(O)c2C(OC2CC(n4cccc4)C(O)C(C)O2)C1)C(=O)c1c(OC)cccc1C3=O (stereo not drawn) [Example 98]

- IC50 (786-O cells): 90 nM
- IC50 (DU-145 cells): 30 nM
- IC50 (Hep3B cells): 29 nM
Structure (SMILES): COc1cccc2c1C(=O)c1c(O)c3c(c(O)c1C2=O)CC(O)(C(=O)COC(=O)CCC(=O)NCCOCCOCCOCCOCCOCCOCCOCCO)CC3OC1CC(n2cccc2)C(O)C(C)O1 (stereo not drawn) [Example 90]
